Data on ten molecules can be found in US11104690B2, “Indazole derivatives useful as inhibitors of diacylglyceride O-acyltransferase 2” (Merck Sharp & Dohme Corp., priority 2016, dated 2021).

Molecules are shown by their SMILES. Several values for one entry are separate records, joined by “and”; a condition that tells them apart may be missing. Equal values may be shown once.

The experiment has as its target Human DGAT2 (Homo sapiens (Human), UniProt Q96PD7). As to the kind of experiment: DGAT2 Enzymatic Activity Assay (triolein formation, LC/MS/MS). It is filed as biochemical. Particulars: hDGAT2 Sf-9 membrane prep; 25 μM diolein, 10 μM oleoyl-CoA; room temperature. Put shortly:
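Triolein product, measured by LC/MS/MS as a ratio to internal standard, gave % inhibition and 4-parameter IC50. Reaction: 25 μM diolein, 10 μM oleoyl-CoA, 10 ng/μL hDGAT2 Sf-9 membrane, 100 mM Tris.Cl pH 7.0, 20 mM MgCl2, 5% ethanol, room temperature.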

Human DGAT2, sequence (Q96PD7 whole entry): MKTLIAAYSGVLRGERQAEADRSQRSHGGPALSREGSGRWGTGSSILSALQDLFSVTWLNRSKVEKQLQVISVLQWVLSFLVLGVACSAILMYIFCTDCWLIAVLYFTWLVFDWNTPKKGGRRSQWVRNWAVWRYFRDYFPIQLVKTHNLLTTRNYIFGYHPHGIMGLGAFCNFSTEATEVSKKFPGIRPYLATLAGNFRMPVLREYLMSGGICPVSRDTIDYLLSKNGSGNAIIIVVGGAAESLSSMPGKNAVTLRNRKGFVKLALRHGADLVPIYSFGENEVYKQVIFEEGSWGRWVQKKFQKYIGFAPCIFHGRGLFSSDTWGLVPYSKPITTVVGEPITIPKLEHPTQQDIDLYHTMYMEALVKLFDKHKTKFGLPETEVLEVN

The IC50 is the concentration that inhibits the measured activity by half. Read a high IC50 as weaker potency. `O=C(NC1CCS(=O)(=O)C1)c1ccc2c(-c3cncnc3)nn(-c3ccc(F)cc3)c2c1` (single isomer, unassigned) [Example 133-A, N-(1,1-dioxidotetrahydrothiophen-3-yl)-1-(4-fluorophenyl)-3-pyrimidin-5-yl-1H-indazole-6-carboxamide] yielded an IC50 of 846 nM.

Molecule `O=C(NC1CCS(=O)(=O)C1)c1ccc2c(-c3cccnc3)nn(-c3ccc(F)cc3)c2c1` (single isomer, unassigned) [Example 134-A, N-(1,1-dioxidotetrahydrothiophen-3-yl)-1-(4-fluorophenyl)-3-pyridin-3-yl-1H-indazole-6-carboxamide] returned an IC50 of 212 nM.

`O=C(NC1CCS(=O)(=O)C1)c1ccc2c(-c3cccnc3Cl)nn(-c3ccc(F)cc3)c2c1` (single isomer, unassigned) [Example 135-A, 3-(2-chloropyridin-3-yl)-N-(1,1-dioxidotetrahydrothiophen-3-yl)-1-(4-fluorophenyl)-1H-indazole-6-carboxamide] came in with an IC50 of 65 nM. Against the preceding molecule, the IC50 is about 3.3-fold lower.

In turn, `O=C(NC1CCS(=O)(=O)C1)c1ccc2c(-c3cccc(OC(F)F)c3)nn(-c3ccc(F)cc3)c2c1` (single isomer, unassigned) [Example 136-A, 3-[3-(difluoromethoxy)phenyl]-N-(1,1-dioxidotetrahydrothiophen-3-yl)-1-(4-fluorophenyl)-1H-indazole-6-carboxamide] displayed an IC50 of 1.4 nM.

Turning to `COc1cc(-c2nn(-c3ccc(F)cc3)c3cc(C(=O)NC4CCS(=O)(=O)C4)ccc23)c(Cl)cn1` (single isomer, unassigned) [Example 137-A, 3-(5-chloro-2-methoxypyridin-4-yl)-N-(1,1-dioxidotetrahydrothiophen-3-yl)-1-(4-fluorophenyl)-1H-indazole-6-carboxamide], half-maximal inhibition (IC50) required 5.4 nM.

`CC1(NC(=O)c2ccc3c(-c4ccc5c(c4)OCO5)nn(-c4ccc(F)cc4)c3c2)CCS(=O)(=O)C1` (single isomer, unassigned) [Example 139-A, 3-(1,3-benzodioxol-5-yl)-1-(4-fluorophenyl)-N-(3-methyl-1,1-dioxidotetrahydrothiophen-3-yl)-1H-indazole-6-carboxamide]: the IC50 was 229 nM and 158 nM.

In turn, `COc1cc(-c2nn(-c3ccc(F)cc3)c3cc(C(=O)NC4(C)CCS(=O)(=O)C4)ccc23)ccn1` (single isomer, unassigned) [Example 140-A, 1-(4-fluorophenyl)-3-(2-methoxypyridin-4-yl)-N-(3-methyl-1,1-dioxidotetrahydrothiophen-3-yl)-1H-indazole-6-carboxamide] gave an IC50 of 455 nM.

As to `COc1cc(-c2nn(-c3ccc(F)cc3)c3cc(C(=O)NC4(C)CCS(=O)(=O)C4)ccc23)c(Cl)cn1` (single isomer, unassigned) [Example 141-A, 3-(5-chloro-2-methoxypyridin-4-yl)-1-(4-fluorophenyl)-N-(3-methyl-1,1-dioxidotetrahydrothiophen-3-yl)-1H-indazole-6-carboxamide], the midpoint of inhibition, the IC50, lay at 4.8 nM.

The molecule `COc1ncc(Cl)cc1-c1nn(-c2ccc(F)cc2)c2cc(C(=O)NC3(C)CCS(=O)(=O)C3)ccc12` (single isomer, unassigned) [Example 142-A, 3-(5-chloro-2-methoxypyridin-3-yl)-1-(4-fluorophenyl)-N-(3-methyl-1,1-dioxidotetrahydrothiophen-3-yl)-1H-indazole-6-carboxamide] had an IC50 of 430 nM.

`CC1(NC(=O)c2ccc3c(-c4cccc(OC(F)F)c4)nn(-c4ccc(F)cc4)c3c2)CCS(=O)(=O)C1` (single isomer, unassigned) [Example 143-A, 3-[3-(difluoromethoxy)phenyl]-1-(4-fluorophenyl)-N-(3-methyl-1,1-dioxidotetrahydrothiophen-3-yl)-1H-indazole-6-carboxamide] gave an IC50 of 1.6 nM.
